The record followed here is ChEMBL document CHEMBL3414474, “Design and synthesis of piperidine derivatives as novel human heat shock protein 70 inhibitors for the treatment of drug-resistant tumors” (Eur J Med Chem, 2015).

Molecules are shown by their SMILES.

Experiment [1] is described as follows: Growth inhibition of human BT474 cells at 5 uM incubated for 72 hrs by ATP detection based luminescent assay. It is filed as functional. Conditions: BT-474, 72 h, read-out: GI.
Experiment [2] can be described thus: Growth inhibition of human BT/LapR1.0 cells at 5 uM incubated for 72 hrs by ATP detection based luminescent assay. It is filed as functional. To be noted: read-out: GI.
In experiment [3] the test system is MDA-MB-361. Put plainly: Growth inhibition of human MDA-MB-361 cells at 5 uM incubated for 72 hrs by ATP detection based luminescent assay. Conditions: MDA-MB-361, 72 h, read-out: GI. It counts as functional.
Experiment [4] can be described thus: Growth inhibition of human SKBR3 cells at 5 uM incubated for 72 hrs by ATP detection based luminescent assay. It is filed as functional. Conditions: SK-BR-3, 72 h, read-out: GI.
Experiment [5] can be described thus: Growth inhibition of human SK/LapR1.0 cells at 5 uM incubated for 72 hrs by ATP detection based luminescent assay. It counts as functional. To be noted: read-out: GI.
The subject of experiment [6] is MDA-MB-453. Put plainly: Growth inhibition of human MDA-MB-453 cells at 5 uM incubated for 72 hrs by ATP detection based luminescent assay. It is filed as functional. Conditions: MDA-MB-453, 72 h, read-out: GI.
Experiment [7] is filed under the species Homo sapiens. Nature of the experiment: Inhibition of HSP70 (unknown origin) at 200 uM pre-incubated for 30 mins followed by ATP addiction and measured after 3 hrs by malachite green reagent based colorimetric assay.

For the molecule `Fc1ccc(CNC2CCN(Cc3cnc(Cl)s3)CC2)cc1`, the inhibition of growth at 5 µM in experiment [1] was 70%; in experiment [2], 66.3%; in experiment [3] it was 36.3%; in experiment [4], 37.8%; in experiment [5], 40.4%; in experiment [6], 72.4%.

Regarding `COc1nccc(N2CCC(N(C)Cc3cccc(F)c3)CC2)n1`, the inhibition of growth at 5 µM turned out to be 9.9% in experiment [1], 8.5% in experiment [3], 9.2% in experiment [4] and 3.9% in experiment [5].

Take `CSc1ncc(CN2CCC(N(C)Cc3c(F)cccc3Cl)CC2)s1`: the inhibition of growth at 5 µM in experiment [1] was determined as 49.5%; in experiment [2], 59.9%; in experiment [3] it was 47.2%; in experiment [4], 9.2%; in experiment [5], 4.5%; in experiment [6] it was 65.3%.

In the case of `CN(Cc1c(Cl)cccc1Cl)C1CCN(Cc2cnc(Cl)s2)CC1`, the inhibition of growth at 5 µM in experiment [1] amounted to 70%; in experiment [2], 66.3%; in experiment [3] it was 36.3%; in experiment [4], 37.8%; in experiment [5], 4.5%; in experiment [6] it was 72.4%.

For the molecule `Cc1ccc(CN(C)C2CCN(Cc3cnc(Cl)s3)CC2)cc1`, the values for the inhibition of growth at 5 µM in experiment [2] and in experiment [5] were 16% and 8.4%, respectively.

As for `COc1cc(N2CCC(N(C)Cc3ccc(F)cc3)CC2)ncn1`, the inhibition of growth at 5 µM in experiment [1] turned out to be 7.8%; in experiment [2], 8.1%; in experiment [3], 4.9%; in experiment [4] it was 7.6%; in experiment [5], 5.7%; in experiment [6], 5%.

On to `CCOc1ncc(CN2CCC(N(C)Cc3cccc(Cl)c3)CC2)s1`, for which, in experiment [5], the inhibition of growth at 5 µM was found to be 5.2%.

`CN(Cc1ccc(Cl)c(Cl)c1)C1CCN(Cc2cnc(Cl)s2)CC1`: in experiment [5], the inhibition of growth at 5 µM was 5.3%.

For `COc1nccc(N2CCC(N(C)Cc3cc(Cl)ccc3Cl)CC2)n1`, the inhibition of growth at 5 µM in experiment [1] was 27.5%; in experiment [2], 22.7%; in experiment [3] it was 22%; in experiment [4], 24.7%; in experiment [5], 11.7%; in experiment [6], 50.6%.

For the molecule `CCOc1ncc(CN2CCC(N(C)Cc3ccccc3C#N)CC2)s1`, the inhibition of growth at 5 µM in experiment [5] is 7.2%.

Consider `CSc1nccc(N2CCC(N(C)Cc3ccc(C)cc3)CC2)n1`, for which the inhibition of growth at 5 µM was 69.2% in experiment [1]; 65.8% in experiment [2]; 55.7% in experiment [3]; 38.9% in experiment [4]; 42% in experiment [5]; 66.6% in experiment [6].

Turning to `CCOc1ncc(CN2CCC(N(C)Cc3cc(Cl)ccc3Cl)CC2)s1`, the inhibition of growth at 5 µM stood at 5.6% in experiment [1], 9.6% in experiment [2], 9.4% in experiment [4] and 5.2% in experiment [5].

As to `COc1cc(N2CCC(N(C)Cc3ccc(Cl)c(Cl)c3)CC2)ncn1`, the inhibition of growth at 5 µM in experiment [1] amounted to 9.8%; in experiment [2], 9.2%; in experiment [3] it was 6.5%; in experiment [5] it was 28%.

Consider `COc1cc(N2CCC(N(C)Cc3ccc(C#N)cc3)CC2)ncn1`, for which the inhibition of growth at 5 µM in experiment [5] stood at 8.8%.

For `COc1nccc(N2CCC(N(C)Cc3ccccc3C#N)CC2)n1`, the inhibition of growth at 5 µM in experiment [1] amounted to 71.6%; in experiment [2], 72.7%; in experiment [3] it was 53.3%; in experiment [4], 86.5%; in experiment [5] it was 74.3%; in experiment [6] it was 79.5%.

For `COc1nccc(N2CCC(N(C)Cc3ccc(C#N)cc3)CC2)n1`, the inhibition of growth at 5 µM in experiment [1] turned out to be 60.4%; in experiment [2], 58.1%; in experiment [3], 27.7%; in experiment [4] it was 31.7%; in experiment [5] it was 16.6%; in experiment [6], 66.2%.

In the case of `CCOc1ncc(CN2CCC(N(C)Cc3ccc(F)cc3)CC2)s1`, the inhibition of growth at 5 µM in experiment [4] stood at 26%.

In experiment [7], `CSc1ncc(CN2CCC(N(C)Cc3ccc(Cl)c(Cl)c3)CC2)s1` had an inhibition of 10.7%.

For the molecule `CN(Cc1ccc(C#N)cc1)C1CCN(Cc2cnc(Cl)s2)CC1`, the inhibition of growth at 5 µM in experiment [5] is 7.5%. Further, the inhibition in experiment [7] came to 11.3%.

Regarding `COc1cc(N2CCC(N(C)Cc3cccc(Cl)c3)CC2)ncn1`, the inhibition of growth at 5 µM in experiment [2] is 9.4%.

As for `CN(Cc1c(F)cccc1Cl)C1CCN(Cc2cnc(Cl)s2)CC1`, the inhibition of growth at 5 µM is 3.2% in experiment [2], 9.8% in experiment [4] and 1.5% in experiment [5].

As to `COc1cc(N2CCC(N(C)Cc3ccc(C)cc3)CC2)ncn1`, the results for the inhibition of growth at 5 µM in experiment [1], in experiment [2] and in experiment [5] were 5%, 8% and 22%, respectively.

For `CCOc1ncc(CN2CCC(N(C)Cc3ccccc3Cl)CC2)s1`, the inhibition of growth at 5 µM in experiment [5] amounted to 0.6%.

In the case of `COc1nccc(N2CCC(N(C)Cc3ccc(C)cc3)CC2)n1`, the inhibition of growth at 5 µM in experiment [1] stood at 61.5%; in experiment [2], 58.8%; in experiment [3], 30.1%; in experiment [4], 19.7%; in experiment [5], 13.5%; in experiment [6] it was 68.9%.

For the molecule `CSc1ncc(CN2CCC(N(C)Cc3ccccc3C)CC2)s1`, the inhibition of growth at 5 µM was 1.4% in experiment [2] and 6.9% in experiment [5].

For `CSc1nccc(N2CCC(N(C)Cc3ccc(Cl)c(Cl)c3)CC2)n1`, in experiment [6], the inhibition of growth at 5 µM came out at 60%.

In the case of `CN(Cc1ccc(F)cc1)C1CCN(Cc2cnc(Cl)s2)CC1`, the inhibition of growth at 5 µM is 7.1% in experiment [1]; 9% in experiment [2]; -1.3% in experiment [3]; -0.1% in experiment [5]; 11% in experiment [6].

Regarding `CSc1nccc(N2CCC(N(C)Cc3cc(Cl)ccc3Cl)CC2)n1`, the inhibition of growth at 5 µM in experiment [1] was 61%; in experiment [2], 56.9%; in experiment [3], 45.7%; in experiment [4], 19.3%; in experiment [5] it was 29.4%; in experiment [6] it was 69.3%.

For the molecule `CSc1ncc(CN2CCC(N(C)Cc3cccc(F)c3)CC2)s1`, in experiment [5], the inhibition of growth at 5 µM was determined as 2.1%.

`Cc1ccccc1CN(C)C1CCN(Cc2cnc(Cl)s2)CC1`: the inhibition of growth at 5 µM in experiment [1] turned out to be 1.5%; in experiment [2], 4%; in experiment [3] it was 4.4%; in experiment [4] it was 9.7%; in experiment [5], 5.1%; in experiment [6] it was 3.5%.

Consider `CS(=O)(=O)CCNCc1ccc(-c2ccc3ncnc(Nc4ccc(OCc5cccc(F)c5)c(Cl)c4)c3c2)o1` [LAPATINIB], for which the inhibition of growth at 5 µM was determined as 18% in experiment [2] and 79% in experiment [4].

`CCOc1ncc(CN2CCC(N(C)Cc3ccc(C#N)cc3)CC2)s1`: in experiment [5], the inhibition of growth at 5 µM stood at 6.7%. This molecule also had an inhibition in experiment [7] of 5.49%.

With `CSc1nccc(N2CCC(N(C)Cc3cccc(F)c3)CC2)n1`, the inhibition of growth at 5 µM in experiment [1] was determined as 67.1%; in experiment [2], 63.9%; in experiment [3] it was 50.4%; in experiment [4], 32.6%; in experiment [5], 35.2%; in experiment [6], 66.2%.

Regarding `Clc1cccc(CNC2CCN(Cc3cnc(Cl)s3)CC2)c1`, the inhibition of growth at 5 µM in experiment [1] stood at 3.8%; in experiment [2], 7.2%; in experiment [3] it was 3.2%; in experiment [5], 4.1%; in experiment [6], 2.4%.

For `CN(Cc1cccc(F)c1)C1CCN(Cc2cnc(Cl)s2)CC1`, the inhibition of growth at 5 µM in experiment [1] turned out to be 2.4%; in experiment [2] it was 5.7%; in experiment [3], 3.2%; in experiment [4], 4.2%; in experiment [5] it was 1.3%; in experiment [6], 4.4%.

Turning to `CN(Cc1cccc(Cl)c1)C1CCN(Cc2cnc(Cl)s2)CC1`, the inhibition of growth at 5 µM in experiment [1] turned out to be 7.1%; in experiment [2] it was 8.4%; in experiment [3], 9.7%; in experiment [5], 8.5%.

Regarding `Clc1ncc(CN2CCC(NCc3ccc(Cl)c(Cl)c3)CC2)s1`, in experiment [1], the inhibition of growth at 5 µM was found to be 11%.

In the case of `CCOc1ncc(CN2CCC(N(C)Cc3c(Cl)cccc3Cl)CC2)s1`, the inhibition of growth at 5 µM in experiment [5] stood at 5.1%.

For `COc1cc(N2CCC(N(C)Cc3ccccc3Cl)CC2)ncn1`, the inhibition of growth at 5 µM in experiment [5] was found to be 29%.

As for `COc1ccc(-c2nc(-c3cc(C(F)(F)F)cc(C(F)(F)F)c3)n(Cc3ccc(C(N)=O)cc3)c2-c2ccc(OC)cc2)cc1`, in experiment [7], the inhibition was determined as 53.1%.

Turning to `COc1cc(N2CCC(N(C)Cc3cc(Cl)ccc3Cl)CC2)ncn1`, the inhibition of growth at 5 µM in experiment [1] was 5.4%; in experiment [2], 5.6%; in experiment [3] it was 8.4%; in experiment [4], 5.2%; in experiment [5], 9.4%; in experiment [6] it was 9.4%.

In the case of `CN(Cc1ccccc1C#N)C1CCN(Cc2cnc(Cl)s2)CC1`, the inhibition of growth at 5 µM was -4.1% in experiment [1]; 4% in experiment [2]; -8.5% in experiment [3]; 7.3% in experiment [4]; 4.2% in experiment [5]; 8.2% in experiment [6].

The inhibition is the drop in the measured response relative to a control, in per cent. Low values mean a response near the control, high ones a response far below the control.
